Reference: patent US10335409B2 (priority 2012, dated 2019)
Like-named read-outs stand apart in the source and are kept apart here.

What was measured:
Type in all cases: cell-based, hepatitis C virus
[1] = test system: genotype 1a (H77) stable HCV replicon in Huh-7-derived cells; test: Stable subgenomic HCV replicon EC50, genotype 1a (Renilla luciferase); conditions: Hepatitis C virus, stable replicon genotype 1a, 72 h, read-out: EC50 1A RLUC
Method: (§1) Antiviral potency (EC50) was determined in both stable subgenomic HCV replicon cell lines and transient-transfected HCV replicon cells. The term half maximal effective concentration (EC50) refers to the concentration of a drug which induces a response halfway between the baseline and maximum after the exposure time specified below.
(§2) Stable subgenomic HCV replicons for genotype 1a, 1b, 2a, 3a, and 4a were established in Huh-7-derived cells as described by Lohmann et al (Lohmann V, Korner F, Koch J, et al Replication of subgenomic hepatitis C virus RNAs in a hepatoma cell line. Science 1999; 285:119-3) Each stable cell line contains a bicistronic HCV replicon that encodes a humanized Renilla luciferase (hRLuc) reporter gene fused to a selectable neomycin-resistance gene, followed by an EMCV IRES and the NS3-NS5B coding region of HCV. […] Luciferase activity was measured as a marker for intracellular HCV replication levels.
(§3) The genotype 1a stable replicon was derived from the H77 HCV strain and contained adaptive mutations P1496L and S2204I. The genotype 1b stable replicon was derived from the Con1 HCV strain and contained adaptive mutations E1202G, T1280I and K1846T. […] The genotype 3a stable replicon was derived from the S52 HCV strain and contained adaptive mutations P1121L, A1198T and S2210I (equivalent to S2204I in genotype 1). The genotype 4a stable replicon was derived from the ED43 HCV strain and contained adaptive mutations Q1691R and S2204I. All replicon cell lines were propagated in Huh-7-derived cells and maintained in Dulbecco's modified Eagle's Medium (DMEM) supplemented with 10% fetal bovine serum (FBS) and 0.5 mg/mL G418.
(§4) To perform EC50 assays, cells from each HCV replicon were dispensed into 384-well plates. Compounds were dissolved in DMSO at a concentration of 10 mM and diluted in DMSO using an automated pipetting instrument. Three-fold serially diluted compounds were directly added to the cells using an automated instrument. […] Seventy-two hours later, cells were lysed and Renilla luciferase activity were quantified as recommended by the manufacturer (Promega-Madison, Wis.). Non-linear regression was performed to calculate EC50 values.

[2] = test system: genotype 1b (Con1) stable HCV replicon in Huh-7-derived cells; test: Stable subgenomic HCV replicon EC50, genotype 1b (Renilla luciferase); conditions: Hepatitis C virus, stable replicon genotype 1b, 72 h, read-out: EC50 1B RLUC
Method: as §1, §2, §3, §4

[3] = test system: genotype 2a (JFH-1) stable HCV replicon in Huh-7-derived cells; test: Stable subgenomic HCV replicon EC50, genotype 2a (Renilla luciferase); conditions: Hepatitis C virus, stable replicon genotype 2a, 72 h, read-out: EC50 2A RLUC
Method: as §1, §2, §3, §4

[4] = test system: genotype 3a (S52) stable HCV replicon in Huh-7-derived cells; test: Stable subgenomic HCV replicon EC50, genotype 3a (Renilla luciferase); conditions: Hepatitis C virus, 72 h, read-out: EC50 3A RLUC
Method: as §1, §2, §3, §4

[5] = test system: genotype 4a (ED43) stable HCV replicon in Huh-7-derived cells; test: Stable subgenomic HCV replicon EC50, genotype 4a (Renilla luciferase); conditions: Hepatitis C virus, 72 h, read-out: EC50 4A RLUC
Method: as §1, §2, §3, §4

[6] = test system: genotype 3a (S52) wild type transient HCV replicon in Huh-7-derived cells; test: Transient-transfected HCV replicon EC50, genotype 3a wild type; conditions: Hepatitis C virus, 72 h, read-out: EC50 3A WT
[7] = test system: genotype 1a (H77) wild type transient HCV replicon in Huh-7-derived cells; test: Transient-transfected HCV replicon EC50, genotype 1a wild type; conditions: Hepatitis C virus, 72 h, read-out: EC50 1A WT
[8] = test system: genotype 1a NS3/4a protease inhibitor resistant variant R155K transient HCV replicon in Huh-7-derived cells; test: Transient-transfected HCV replicon EC50, genotype 1a R155K; conditions: Hepatitis C virus, 72 h, read-out: EC50 1A R155K, transient-transfected replicon genotype 1a R155K resistant variant, 72 h
[9] = test system: genotype 1b (Con1) wild type transient HCV replicon in Huh-7-derived cells; test: Transient-transfected HCV replicon EC50, genotype 1b wild type; conditions: Hepatitis C virus, 72 h, read-out: EC50 1B WT
[10] = test system: genotype 1b NS3/4a protease inhibitor resistant variant D168A transient HCV replicon in Huh-7-derived cells; test: Transient-transfected HCV replicon EC50, genotype 1b D168A; conditions: Hepatitis C virus, 72 h, read-out: EC50 1B D168A, transient-transfected replicon genotype 1b D168A resistant variant, 72 h
[11] = transient-transfected replicon genotype 3a wild type
[12] = transient-transfected replicon genotype 1a wild type
[13] = transient-transfected replicon genotype 1b wild type

SMILES	EC50 [1]	EC50 [2]	EC50 [3]	EC50 [4]	EC50 [5]	EC50 [6, 11]	EC50 [7, 12]	EC50 [8]	EC50 [9, 13]	EC50 [10]	EC50 [6]	EC50 [7]	EC50 [9]
CC[C@@H]1[C@@H]2CN(C(=O)[C@H](C(C)(C)C)NC(=O)O[C@@H]3C[C@H]3CCCCC(F)(F)c3nc4ccccc4nc3O2)[C@@H]1C(=O)N[C@]1(C(=O)NS(=O)(=O)C2CC2)C[C@H]1CC [Example 54, (1aR,5S,8S,9S,10R,22aR)-5-tert-butyl-N-{(1R,2R)-1-[(cyclopropylsulfonyl)carbamoyl]-2-ethylcyclopropyl}-9-ethyl-18,18-difluoro-3,6-dioxo-1,1a,3,4,5,6,9,10,18,19,20,21,22,22a-tetradecahydro-8H-7,10-methanocyclopropa[18,19][1,10,3,6]dioxadiazacyclononadecino[11,12-b]quinoxaline-8-carboxamide]	33 nM	18 nM	76 nM	260 nM	13 nM	147 nM	19 nM	27 nM	10 nM	123 nM	–	–	–
CC[C@@H]1[C@@H]2CN(C(=O)[C@H](C(C)(C)C)NC(=O)O[C@@H]3C[C@H]3CCCCC(F)(F)c3nc4ccc(OC)cc4nc3O2)[C@@H]1C(=O)NC1(C(=O)NS(=O)(=O)C2CC2)C[C@H]1C(F)F (stereo partly drawn) [Example 94, (1aR,5S,8S,9S,10R,22aR)-5-tert-butyl-N-[(2R)-1-[(cyclopropylsulfonyl)carbamoyl]-2-(difluoromethyl)cyclopropyl]-9-ethyl-18,18-difluoro-14-methoxy-3,6-dioxo-1,1a,3,4,5,6,9,10,18,19,20,21,22,22a-tetradecahydro-8H-7,10-methanocyclopropa[18,19][1,10,3,6]dioxadiazacyclononadecino[1,12-b]quinoxaline-8-carboxamide]	3.8 nM	5.2 nM	3.3 nM	32 nM	3 nM	10 nM	3.2 nM	3.1 nM	1.9 nM	9.2 nM	–	–	–
CC[C@@H]1[C@@H]2CN(C(=O)[C@H](C(C)(C)C)NC(=O)O[C@]3(C)CCC[C@H]3CCCCCc3nc4ccc(OC)cc4nc3O2)[C@@H]1C(=O)N[C@]1(C(=O)NS(=O)(=O)C2(C)CC2)C[C@H]1CC(F)F [Example 41, (3aR,7S,10S,11S,12R,24aR)-7-tert-butyl-N-[(1R,2S)-2-(2,2-difluoroethyl)-1-{[(1-methylcyclopropyl)sulfonyl]carbamoyl}cyclopropyl]-11-ethyl-16-methoxy-3a-methyl-5,8-dioxo-1,2,3,3a,5,6,7,8,11,12,20,21,22,23,24,24a-hexadecahydro-10H-9,12-methanocyclopenta[18,19][1,10,3,6]dioxadiazacyclononadecino[11,12-b]quinoxaline-10-carboxamide]	135 nM	142 nM	106 nM	2610 nM	135 nM	539 nM	164 nM	505 nM	154 nM	715 nM	–	–	–
COc1ccc2nc3c(nc2c1)O[C@H]1CN(C(=O)[C@H](C(C)(C)C)NC(=O)O[C@@H]2C[C@H]2CCCCC3)[C@H](C(=O)N[C@]2(C(=O)NS(=O)(=O)C3(C)CC3)C[C@H]2C(F)F)[C@@H]1CC#N [Example 50, (1aR,5S,8S,9S,10R,22aR)-5-tert-butyl-9-(cyanomethyl)-N-[(1R,2R)-2-(difluoromethyl)-1-{[(1-methylcyclopropyl)sulfonyl]carbamoyl}cyclopropyl]-14-methoxy-3,6-dioxo-1,1a,3,4,5,6,9,10,18,19,20,21,22,22a-tetradecahydro-8H-7,10-methanocyclopropa[18,19][1,10,3,6]dioxadiazacyclononadecino[11,12-b]quinoxaline-8-carboxamide]	4440 nM	4440 nM	379 nM	19700 nM	4440 nM	26800 nM	4440 nM	3830 nM	4440 nM	4440 nM	–	–	–
CC[C@@H]1[C@@H]2CN(C(=O)[C@H](C(C)(C)C)NC(=O)O[C@]3(C)CCC[C@H]3CCCCCc3nc4ccc(OC)cc4nc3O2)[C@@H]1C(=O)N[C@]1(C(=O)NS(=O)(=O)C2(C)CC2)C[C@H]1CC [Example 56, (3aR,7S,10S,11S,12R,24aR)-7-tert-butyl-11-ethyl-N-[(1R,2R)-2-ethyl-1-{[(1-methylcyclopropyl)sulfonyl]carbamoyl}cyclopropyl]-16-methoxy-3a-methyl-5,8-dioxo-1,2,3,3a,5,6,7,8,11,12,20,21,22,23,24,24a-hexadecahydro-10H-9,12-methanocyclopenta[18,19][1,10,3,6]dioxadiazacyclononadecino[11,12-b]quinoxaline-10-carboxamide]	41 nM	37 nM	57 nM	1030 nM	57 nM	226 nM	63 nM	168 nM	59 nM	252 nM	–	–	–
COc1ccc2nc3c(nc2c1)O[C@H]1CN(C(=O)[C@H](C(C)(C)C)NC(=O)O[C@@H]2C[C@@H]4C[C@@H]4[C@H]2CCCCC3)[C@H](C(=O)N[C@]2(C(=O)NS(=O)(=O)C3(C)CC3)C[C@H]2CC(F)F)[C@@H]1C [Example 58, (1aS,2aR,6S,9S,10S,11R,23aR,23bS)-6-tert-butyl-N-[(1R,2S)-2-(2,2-difluoroethyl)-1-{[(1-methylcyclopropyl)sulfonyl]carbamoyl}cyclopropyl]-15-methoxy-10-methyl-4,7-dioxo-1a,2,2a,4,5,6,7,10,11,19,20,21,22,23,23a,23b-hexadecahydro-1H,9H-8,11-methanocyclopropa[4′,5′]cyclopenta[1′,2′:18,19][1,10,3,6]dioxadiazacyclononadecino[11,12-b]quinoxaline-9-carboxamide]	12 nM	9.7 nM	12 nM	134 nM	12 nM	–	–	18 nM	–	23 nM	38 nM	12 nM	14 nM
CC[C@@H]1[C@@H]2CN(C(=O)[C@H](C(C)(C)C)NC(=O)O[C@@]3(C)C[C@@H]3CCCCC(F)(F)c3nc4ccc(OC)cc4nc3O2)[C@@H]1C(=O)N[C@]1(C(=O)NS(=O)(=O)C2(C)CC2)C[C@H]1C(F)F [Example 64, (1aS,5S,8S,9S,10R,22aS)-5-tert-butyl-N-[(1R,2R)-2-(difluoromethyl)-1-{[(1-methylcyclopropyl)sulfonyl]carbamoyl}cyclopropyl]-9-ethyl-18,18-difluoro-14-methoxy-1a-methyl-3,6-dioxo-1,1a,3,4,5,6,9,10,18,19,20,21,22,22a-tetradecahydro-8H-7,10-methanocyclopropa[18,19][1,10,3,6]dioxadiazacyclononadecino[11,12-b]quinoxaline-8-carboxamide]	100 nM	38 nM	48 nM	671 nM	34 nM	256 nM	37 nM	50 nM	17 nM	104 nM	–	–	–
